# Experimental data from publication PMC5112770 (ACS chemical neuroscience, 2015).
# Like-named read-outs stand apart in the source and are kept apart here.
# What was measured:
# [1] = target: T1, tau (Homo sapiens, UniProt P10636); format: biochemical
# [2] = target: T1, tau; format: biochemical; remark: listed apart in the source
# T1 sequence (P10636 1-441 isoform P10636-8): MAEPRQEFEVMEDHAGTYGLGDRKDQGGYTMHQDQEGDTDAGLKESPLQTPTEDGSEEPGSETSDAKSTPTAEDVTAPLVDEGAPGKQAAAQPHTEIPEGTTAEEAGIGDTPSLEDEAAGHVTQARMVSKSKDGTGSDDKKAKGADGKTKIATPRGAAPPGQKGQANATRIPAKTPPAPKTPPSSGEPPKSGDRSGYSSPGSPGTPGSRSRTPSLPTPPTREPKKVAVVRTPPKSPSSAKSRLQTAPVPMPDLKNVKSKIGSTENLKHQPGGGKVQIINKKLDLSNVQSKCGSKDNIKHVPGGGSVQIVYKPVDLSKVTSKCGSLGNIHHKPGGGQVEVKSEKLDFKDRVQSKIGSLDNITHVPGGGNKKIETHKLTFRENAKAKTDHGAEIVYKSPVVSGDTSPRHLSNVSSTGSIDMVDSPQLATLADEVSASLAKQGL
SMILES,IC50 [1],IC50 [2]
CC[C@H](C)/C=C(C)/C=C/C1=CC2=C(Br)C(=O)C(C)(OC(C)=O)C(=O)C2=CO1 (some centres unmarked) [aza-9],56 ± 14 µM,–
CC[C@H](C)/C=C(C)/C=C/C1=CC2=C(Br)C(=O)C(C)(O)C(=O)C2=CO1 (some centres unmarked) [aza-13],–,216 ± 18 µM
